Patent US5843948A, “Piperazinophenyl- and piperazinophenyloxycarboxylic acid derivatives, and processes and intermediates for their preparation and pharmaceutical compositions comprising them” (Solvay Pharmaceuticals GmbH, priority 1996, dated 1998)

Target: T1, purified GP IIb/IIIa fibrinogen receptor from human blood platelets (Homo sapiens, UniProt P05106+P08514)
T1 construct: purified GP IIb/IIIa fibrinogen receptor from human blood platelets; from tissue; host or cells: human blood platelets
Assay: Inhibition of fibrinogen binding to GP IIb/IIIa, solid phase enzyme immunoassay of the ELISA type (Kouns et al.)
Details: purified human plasma fibrinogen 20 μg/ml, 37° C., 2 hours, read-out: pIC50 (negative common logarithm of the IC50 for inhibition of the specific fibrinogen binding of GP IIb/IIIa) (converted)
Procedure: The inhibitory action of the substances of the formula I on the fibrinogen binding to the fibrinogen receptor of the blood platelets, the GP IIb/IIIa, was detected in a solid phase enzyme immunoassay of the ELISA type ("Enzyme-Linked Immunosorbent Assay") according to the method described by Kouns et al. (Blood 80 (1992) 2539-2547).
A solution of purified GP IIb/IIIa fibrinogen receptor from human blood platelets (1 μg/ml in phosphate-buffered physiological saline solution, pH 7.4) was applied in portions of 100 μl/sample position to a microtitre plate and allowed to stand at 4° C. for 18 hours. Excess receptor reagent was washed off by a standard wash (3 times 350 μl of wash buffer solution/sample position: 0.01% (v/v) Tween 80 in phosphate-buffered physiological saline solution) and unoccupied residual protein binding sites were occupied by a blocking reagent [300 μl/sample position of an aqueous receptor buffer solution: 20 mmole/liter of tris(hydroxymethyl)aminomethane, 150 mmole/liter of NaCl, 1 mmole/liter of MgCl2, 1 mmole/liter of CaCl2; treated with 5% (w/v) bovine serum albumin (BSA)]. The mixture was incubated at 37° C. for 2 hours and excess blocking reagent was removed.
Purified human plasma fibrinogen [100 μl/sample position of a 20 μg/ml solution in test buffer. Test buffer=receptor buffer mixed with 1% (w/v) BSA] was then added together with the test substance dissolved therein (concentration dependent on the test substance) and incubated at 37° C. for 2 hours. Unbound fibrinogen was removed by standard washing and the incubation was continued for a further hour at room temperature after addition of biotinylated rabbit antibodies against human fibrinogen (100 μl/sample position in optimum use dilution, dissolved in test buffer) . After a further standard wash, horseradish peroxidase-conjugated streptavidin (1:2000, in suitable dilution in test buffer) was added, and the mixture was incubated again at room temperature for one hour, followed by a further standard wash.
Finally, the peroxidase substrate 2,2'-azinodi-(3-ethylbenzothiazolinesulfonate) (abbreviated below as ABTS), (100 μl/sample position of a solution of 0.4 g/liter of ABTS in 0.1 mole/liter of citric acid buffer, adjusted to pH 4 using 0.4 mole/liter of NaH2 PO4 ·2 H2 O), treated with 0.003% (w/v) hydrogen peroxide, was added and the extinction of the mixture was measured at 405 nm at 5 minute intervals for twenty minutes.
The peroxidase activity was determined from the measurements as the increase in the extinction with time. It was used to calculate the total fibrinogen binding and also the non-specific fibrinogen binding. The non-specific fibrinogen binding was determined without addition of the GP IIb/IIIa. The specific fibrinogen binding could be calculated from these two values. The effect of the test substances was expressed in IC50 values, which were obtained by interpolation from concentration-dependent measuring curves. The IC50 is that concentration in μmole/liter at which a test substance inhibits the specific fibrinogen binding of GP IIb/IIIa by 50%. The following Table 1 presents the IC50 values found for the test substance as negative common logarithms, the pIC50 values. The example numbers relate to the subsequent preparation examples.

T1 sequence (P08514 32-887 limits assumed): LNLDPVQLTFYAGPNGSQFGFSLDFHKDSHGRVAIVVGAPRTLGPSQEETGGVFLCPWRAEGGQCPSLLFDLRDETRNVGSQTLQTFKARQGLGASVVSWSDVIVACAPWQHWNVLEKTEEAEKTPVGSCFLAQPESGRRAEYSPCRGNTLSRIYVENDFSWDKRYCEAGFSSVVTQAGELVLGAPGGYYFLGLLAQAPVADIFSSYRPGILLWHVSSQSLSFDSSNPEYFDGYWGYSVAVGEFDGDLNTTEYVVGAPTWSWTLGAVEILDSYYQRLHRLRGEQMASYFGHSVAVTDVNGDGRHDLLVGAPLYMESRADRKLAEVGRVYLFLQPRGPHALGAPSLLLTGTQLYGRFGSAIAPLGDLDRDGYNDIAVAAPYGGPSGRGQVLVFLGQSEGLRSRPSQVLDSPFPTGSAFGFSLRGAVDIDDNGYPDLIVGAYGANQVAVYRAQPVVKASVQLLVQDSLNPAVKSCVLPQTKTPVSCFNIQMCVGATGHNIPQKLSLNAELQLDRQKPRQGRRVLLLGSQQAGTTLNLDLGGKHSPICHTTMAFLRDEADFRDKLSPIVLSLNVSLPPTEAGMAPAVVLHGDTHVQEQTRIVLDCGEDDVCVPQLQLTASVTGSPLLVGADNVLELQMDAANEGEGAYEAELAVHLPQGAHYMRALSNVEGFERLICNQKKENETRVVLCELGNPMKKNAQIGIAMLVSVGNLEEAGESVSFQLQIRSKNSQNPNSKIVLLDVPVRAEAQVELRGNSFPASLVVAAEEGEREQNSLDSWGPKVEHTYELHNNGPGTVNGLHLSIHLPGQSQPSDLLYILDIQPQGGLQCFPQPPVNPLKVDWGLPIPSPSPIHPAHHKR
T1 sequence (P08514 891-1039 limits assumed): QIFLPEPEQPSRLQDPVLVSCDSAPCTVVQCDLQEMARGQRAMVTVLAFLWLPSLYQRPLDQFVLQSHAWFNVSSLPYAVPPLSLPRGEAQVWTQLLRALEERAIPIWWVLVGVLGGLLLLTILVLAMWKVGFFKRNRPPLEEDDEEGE
T1 sequence (P05106 27-788): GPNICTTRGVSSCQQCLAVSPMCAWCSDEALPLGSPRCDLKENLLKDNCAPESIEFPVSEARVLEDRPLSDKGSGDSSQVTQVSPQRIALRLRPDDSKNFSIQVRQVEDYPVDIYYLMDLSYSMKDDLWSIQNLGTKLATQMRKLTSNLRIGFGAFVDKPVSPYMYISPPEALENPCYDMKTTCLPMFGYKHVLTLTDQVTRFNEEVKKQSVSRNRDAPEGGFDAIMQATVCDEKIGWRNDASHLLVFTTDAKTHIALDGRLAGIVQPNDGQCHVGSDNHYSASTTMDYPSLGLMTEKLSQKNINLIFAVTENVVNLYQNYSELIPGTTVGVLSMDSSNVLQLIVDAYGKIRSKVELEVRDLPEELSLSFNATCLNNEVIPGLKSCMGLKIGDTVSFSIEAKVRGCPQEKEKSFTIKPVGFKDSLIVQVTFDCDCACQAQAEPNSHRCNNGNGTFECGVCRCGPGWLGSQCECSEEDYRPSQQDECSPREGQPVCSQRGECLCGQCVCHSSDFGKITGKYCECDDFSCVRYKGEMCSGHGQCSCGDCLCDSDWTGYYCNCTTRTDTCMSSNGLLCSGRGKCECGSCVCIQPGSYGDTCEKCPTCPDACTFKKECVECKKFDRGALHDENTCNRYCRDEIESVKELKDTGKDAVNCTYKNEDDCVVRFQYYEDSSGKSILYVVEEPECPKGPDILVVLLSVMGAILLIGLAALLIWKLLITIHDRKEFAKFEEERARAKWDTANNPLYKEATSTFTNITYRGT

## N=C(N)c1ccc(N2CCN(c3ccc(OCC(=O)O)cc3)CC2)cc1 [Example 2a, 4-[4-(4-Amidinophenyl)-1-piperazinyl]-phenoxyacetic acid]
  IC50: 1.58 nM

## N=C(N)c1ccc(N2CCN(c3ccc(OCC(=O)O)cc3)CC2)nc1 [Example 6, 4-{4-[2-(5-Amidinopyridyl)]-1-piperazinyl}-phenoxyacetic acid]
  IC50: 1.55 nM

## N=C(N)c1ccc(N2CCN(c3ccc(CCC(=O)O)cc3)CC2)cc1 [Example 12]
  IC50: 28.2 nM

## N=C(N)c1ccc(N2CCN(c3ccc(CCC(=O)O)cc3)CC2)nc1 [Example 10, 3-{4-[4-(2-(5-Amidinopyridyl))-1-piperazinyl]-phenyl}propionic acid]
  IC50: 30.2 nM

## COC(=O)COc1ccc(N2CCN(c3ccc(C(=N)N)cn3)CC2)cc1 [Example 7, Methyl 4-{4-[2-(5-amidinopyridyl)]-1-piperazinyl}phenoxyacetate]
  IC50: 36.3 nM
